According to patent US20040171553A1, “Peptides fragments of colostrinin and their use” (priority 2000, published 2004):
Where “and” joins values, the source holds several entries; their conditions need not be identical. Identical values can stand only once.

Each substance was assayed on beta-amyloid precursor protein (assay: Ischemia-induced beta-amyloid precursor protein accumulation in rats, immunostaining with monoclonal antibodies). Conditions: ischemic rats, summary of Table 4.
Format: in vivo
Parameters: Jonas C-terminal APP / Beringer- terminal APP / 511-608 APP ALZ 90 / Total: scale not given here
Text: Ischemia was induced in rats in order to encourage the development of the beta-amyloid precursor proteins. The rats were then subjected to a variety of treatment regimes, and the degree of the beta-amyloid precursor protein presence was investigated. The general technique is described in “Complete cerebral ischemia with short-term survival in rats induced by cardiac arrest. I. Extracellular accumulation of Alzheimer's β-amyloid protein precursor in the brain.”, Pluta, R. et al, Brain Research 649 (1994) 323-328.
The treatment regime varied in terms of the length of time ischemia was induced, and the length of time treatment was applied.
The Colostrinin was obtained by conventional techniques, as described, for example, in WO98/14473. The peptides were produced using the method described in Example 1. The control was not subjected to any treatment.
Each column represents the results if the immunostaining with specific monoclonal antibodies directed against fragments of amyloid or its N and C precursor protein.

| Substance | β-amyloid plaque level, overall result in words |
| --- | --- |
| PVLPVEPFPF [Peptide 3] | particularly good results |
| ESYVPLFP [Peptide 5] | particularly good results |
| QPLLQVMMEPQ [Peptide 1] | particularly good results |

Same assay, conditions: sum of the three APP immunostaining levels; ischemic rats

| Substance | Total |
| --- | --- |
| PVVVPPFLQ [Peptide 9] | 8 and 5 and 6 |
| QPKVLPVPQ [Peptide 7] | 11 and 10 and 9 |

Same assay, conditions: β-amyloid plaque level, 511-608 position of precursor protein; ischemic rats, immunostaining

| Substance | 511-608 APP ALZ 90 |
| --- | --- |
| QPKVLPVPQ [Peptide 7] | 4 and 5 |

Same assay, conditions: β-amyloid plaque level, C-terminal end of precursor protein; ischemic rats, immunostaining

| Substance | Jonas C-terminal APP |
| --- | --- |
| PVVVPPFLQ [Peptide 9] | 3 and 2 |
| PVLPVEPFPF [Peptide 3] | 1 and 2 |
| QPKVLPVPQ [Peptide 7] | 3 |
| QPLLQVMMEPQ [Peptide 1] | 1 and 2 |

Same assay, conditions: β-amyloid plaque level, N-terminal end of precursor protein; ischemic rats, immunostaining

| Substance | Beringer- terminal APP |
| --- | --- |
| ESYVPLFP [Peptide 5] | 2 and 4 |

These substances were tested on rabbits (assay: Serum antibody titre by ELISA after immunisation of rabbits with the KHL-conjugated synthetic peptide). Conditions: rabbit R1, after the 10 week immunisation protocol; ELISA against corresponding synthetic peptide antigen.
Format: in vivo, rabbit
Procedure: To each N-terminal end of the synthetic peptides, L-cysteine was attached, and the peptide was formed into a ring so that the cysteine group lay between the N-terminal and the C-terminal ends of the synthetic peptide. This facilitated peptide conjugation with Keyhole Hemolymph (KHL).
For immunisation, two young adult rabbits (5-6 months old, weighing 5-6 lbs [2.3-2.7 kg]) were used. Each antigen (i.e., each synthetic peptide) was given subcutaneously and intramuscularly in 0.1 ml injections at ten different sites. The protocol used followed the following sequence:
The level of antibodies in the serum was established by ELISA (enzyme-linked immunosorbent assay) with the corresponding synthetic peptide antigen. This technique involved the following steps:
1. The antigen was diluted with a 0.1 M bicarbonate buffer (pH 9.0) to yield a 10 μg of antigen/ml solution. A volume of 50 μl of this solution was placed into each microwell of a 96 well plate.
2. The plates were covered and incubated at 37° C. for 3 hours.
3. The wells were washed with a coupling buffer and blocked using 200 μl of Pierce standard solution of BSA (bovine serum albumin).
4. 50 μl of dilutent BSA (0.75% soln.) was pipetted into each well. 50 μl of antibody serum sample diluted 1:100 in dilutent BSA were placed in lane A of each row.
5. 1:2 serial dilutions were performed moving down the plate.
6. The plates were covered and incubated at room temperature for 60 minutes.
7. The plates were washed four times with PBS wash solution.
8. A volume of 50 μl of goat anti-rabbit IgG (H&L) HRP conjugate at 1:1000 dilution in BSA was pipetted into each well and incubated at room temperature for 60 minutes (H&L=heavy and light chain; HRP=horseradish peroxidase).
9. The plates were washed four times with PBS wash solution.
10. A volume of 50 μl of substrate solution 2,2′-azino-bis(3-ethylbenzothiazoline-6-sulfonic acid)-diammonium salt (ABTS available from Pierce, which is used to help visualise the extent of the antibody/antigen reaction) was pipetted into each well and incubated at room temperature for about 2 minutes.
11. The reaction was stopped by adding 50 μl of 1% SDS (sodium dodecyl sulfate) into each well.
12. The wells were then read on a dynoplate reader at 405.
The data presented in Table 3 show the serum antibody titers against specific antibodies after the 10 week immunisation protocol.

| Substance | Titre: (Serum Dilution) Post Immunization R1 |
| --- | --- |
| PKLKVEVPEP [Peptide 4] | 25600 |
| LPLPLVRS [Peptide 10] | 25600 |
| PVVVPPFLQ [Peptide 9] | 25600 |
| LLYQEPV [Peptide 6] | 25600 |
| FLPVVN [Peptide 2] | 12800 |
| PVLPVEPFPF [Peptide 3] | 12800 |
| QPKVLPVPQ [Peptide 7] | 25600 |
| PLPPTVMFPPQ [Peptide 8] | 25600 |
| ESYVPLFP [Peptide 5] | 25600 |
| QPLLQVMMEPQ [Peptide 1] | 12800 |

Same assay, conditions: rabbit R1, before immunisation; ELISA against corresponding synthetic peptide antigen

| Substance | Titre: (Serum Dilution) Pre Immunization R1 |
| --- | --- |
| PKLKVEVPEP [Peptide 4] | 0 |
| LPLPLVRS [Peptide 10] | 0 |
| PVVVPPFLQ [Peptide 9] | 0 |
| LLYQEPV [Peptide 6] | 0 |
| FLPVVN [Peptide 2] | 0 |
| PVLPVEPFPF [Peptide 3] | 0 |
| QPKVLPVPQ [Peptide 7] | 0 |
| PLPPTVMFPPQ [Peptide 8] | 0 |
| ESYVPLFP [Peptide 5] | 0 |
| QPLLQVMMEPQ [Peptide 1] | 0 |
